Laboratory results: patent publication US20230165865A1, “HETEROARYLDIHYDROPYRIMIDINE DERIVATIVES AND METHODS OF TREATING HEPATITIS B INFECTIONS” (Janssen Pharmaceutica NV, priority 2018, published 2023)
Where two headings read alike, the source gives them in different places.

How the values were obtained:
[1] = Pharmacokinetic study after intravenous and oral administration in male SD rats; assay type: in vivo; details: for clearance / Cmax: male, SD; for clearance / IV AUCinf/Dose: IV, nominal 2 mg/kg; for clearance: read-out: IV Cl; for Cmax / PO AUCinf/Dose: PO; for Cmax: nominal 5 mg/kg; for F: PO vs IV
Experimental: Male SD rats with a weight range of 250-300 g (Si Bei Fu Laboratory Animal Technology Co. Ltd, China) were used. Animals were fasted overnight and free access to food 4 hours after dosing.
(§1) Test compound (correction factor: 1.00) was dissolved in a 20% hydroxypropyl-β-cyclodextrin (HP-β-CD) at a final concentration of 1 mg/ml for the intravenous (IV) formulation and at final concentrations of 0.5 mg/ml for the oral (PO) formulation.
The intravenous formulation was dosed at 2 ml/kg to obtain a dose of 2 mg/kg. The oral formulations were dosed at 10 ml/kg to obtain final doses of 5 mg/kg.
Blood samples were taken at 5, 15 and 30 min, 1, 2, 4, 8 and 24 h after intravenous dose administration. Blood samples were taken at 15 and 30 min, 1, 2, 4, 8, 12 and 24 h after oral dose administration.
(§2) Approximately 0.20 mL blood will be collected into BD blood collection tubes containing Sodium Fluoride (NaF), Potassium Oxalate (KoX) and K3-EDTA at each time point. Samples were placed immediately on melting ice and plasma was obtained following centrifugation at 4° C. for 5 minutes at approximately 4000×g. Plasma samples were adjusted to pH 3-4 by phosphoric acid and stored at −75±15° C. prior to analysis. The whole process was completed within 1 hour.
Plasma samples were analyzed using LC-MS/MS methods. The lower limit of quantification (LLOQ) for plasma was 1.0 ng/ml.
A non-compartmental analysis using the “Linear up log down” rule was used for all data. A limited pharmacokinetic analysis was performed using Phoenix™ Professional (Version 6.1). Results: See table 10 below for plasma PK results.

[2] = Metabolic stability of test compound in human hepatocyte cell; assay type: in vitro ADME; details: cryopreserved human hepatocytes (suspension), human hepatocytes; for half-life at 1 uM: 0-120 min, read-out: T½; for CLint scaled at 1 uM: scale-up intrinsic clearance, scaling factor 2544.3, read-out: Clint (liver)
Experimental: • 1. The cryopreserved human hepatocytes cells were thawed in 37° C. water bath and diluted with pre-warmed incubation medium to a working cell density of 1×10^6 viable cells/mL. • 2. The 198 μL pre-warmed hepatocyte suspensions were spiked with 2 μL of 100 μM compound or reference compound(Verapamil) at a final concentration of 1.0 μM in a 96-well plate. The plate was incubated at 37° C., 900 rpm. All incubations will be performed in singlet. • 3. 25 μL aliquots of well contents were collected at time points of 0, 15, 30, 60, 90 and 120 minutes. The reactions were stopped by the addition of 6-fold volumes of cold acetonitrile with internal standards. • 4. After centrifugation for 25 minutes at 3,220 g. Aliquot of 100 μL of the supernatant was mixed with 100 μL of ultra-pure H2O and then used for LC-MS/MS analysis.
All calculations were carried out using Microsoft Excel. Peak areas were determined from extracted ion chromatograms. Determine the in vitro half-life (t1/2) of parent compound by regression analysis of the percent parent disappearance vs. time curve.
The in vitro half-life (in vitro t1/2) is determined from the slope value k:
Conversion of the in vitro t1/2(in min) into the in vitro intrinsic clearance (in vitro CLint, in μL/min/10^6 cells) is done using the following equation:
V=incubation volume (0.2 mL);
N=number of hepatocytes per well (0.2×10^6 cells).
Conversion of the in vitro t1/2(in min) into the scale-up intrinsic clearance (CLint(liver), in mL/min/kg) was done using the following equation:
CLint(liver)=kV/N×scaling factor

[3] = Pharmacokinetic and tissue distribution study via intravenous and oral administration in male C57BL/6 mice; assay type: in vivo; details: for Kp / clearance / Cmax: male, C57BL/6, mouse; for Kp: liver and plasma, po; for Kp / Cmax / Liver AUCinf/Dose / Liver Cmax/Dose / PO AUCinf/Dose: PO; for clearance / IV AUCinf/Dose: IV, nominal 2 mg/kg; for clearance: read-out: IV Cl; for Cmax: dose per compound in table (5.28-9.95 mg/kg); for F: PO vs IV
Experimental: Male C57BL/6 mice with a weight range of 20-25 g (Hua Fu Kang, China) were used. Animals were fasted overnight and free access to food 4 hours after dosing.
as §1, with “formulation. The intravenous formulation was dosed at 2 ml/kg to obtain a dose of 2 mg/kg. The oral formulations were dosed at 10 ml/kg to obtain final doses of 5 mg/kg.” for “formulation.”
Blood samples were taken at 7 and 20 min, 1, 2, 4, 8 and 24 h after intravenous dose administration. Blood and liver samples were taken at 30 min, 1, 2, 4, 8, 12 and 24 h after oral dose administration.
as §2, with “0.020” for “0.20”, “containing” for “containing Sodium Fluoride (NaF), Potassium Oxalate (KoX) and”
Liver samples were collected at adopted time point, and the vial containing the tissues sample was snap-frozen in liquid nitrogen right away and kept at −75±15° C. prior to analysis. All liver samples were weighed and homogenized with phosphoric acid solution (pH to 3-4) by liver weight (g) to phosphoric acid solution volume (mL) ratio 1:4 before analysis.
Plasma and liver samples were analyzed using LC-MS/MS methods. The lower limit of quantification (LLOQ) for plasma was 1.0 ng/ml and for liver was 2.5 ng/g. A non-compartmental analysis using the “Linear up log down” rule was used for all data. A limited pharmacokinetic analysis was performed using Phoenix™ Professional (Version 6.1).

[4] = rat plasma, comparing with reference 2
[5] = mice, read-out: AUCInf Ratio (Liver/Plasma)
[6] = mice, read-out: Cmax Ratio (Liver/Plasma)

Structure (SMILES) | clearance ([1]; rat plasma) [mL/min/kg] | Cmax ([1]; rat plasma) [ng/mL] | IV AUCinf/Dose ([1]; rat plasma) [ng·kg·h/mg/mL] | PO AUCinf/Dose ([1]; rat plasma) [ng·kg·h/mg/mL] | F ([1]; rat) [%] | half-life at 1 uM [2] [h] | CLint scaled at 1 uM [2] [mL/min/kg] | Kp [3, 5] | Kp [3, 6] | clearance ([3]; mice plasma) [mL/min/kg] | Cmax ([3]; mice plasma) [ng/mL] | Liver AUCinf/Dose ([3]; mice liver) [ng·kg·h/g/mg] | Liver Cmax/Dose ([3]; mice liver) [kg·ng/mg/mL] | IV AUCinf/Dose ([3]; mice plasma) [ng·kg·h/mg/mL] | PO AUCinf/Dose ([3]; mice plasma) [ng·kg·h/mg/mL] | F ([3]; mice) [%] | other results
CCOC(=O)C1=C(CN2CCN3C(=S)N(CC(C)(C)C(=O)O)CC3C2)NC(c2nccs2)=N[C@H]1c1cccc(F)c1C (single isomer, unassigned) [Compound 1A] | 11.6 | 4060 | 1578.1 | 1780.7 | 113 | 3.82 | 7.7 | 17.5 | 14 | 16.6 | 2350 | 13733 | 6225 | 1078.3 | 784.8 | 72.9 | clearance, in words [1, 4]: far slower clearance; dose-normalized AUC (AUCinf/Dose), in words [1, 4]: over two-folds higher; bioavailability (F (%)), in words ([1]; rat, comparing with reference 2): increased (or equal) bioavailability; dose-normalized Cmax and dose-normalized AUCinf in liver, in words ([3]; mice liver, comparing with reference 1 and reference 2): far increased; clearance, in words ([3]; mice plasma, comparing with reference 1 and reference 2): far slower clearance; bioavailability in plasma, in words ([3]; mice, comparing with reference 1 and reference 2): increased bioavailability
CCOC(=O)C1=C(CN2CCN3C(=O)N(CC(C)(C)C(=O)O)C[C@@H]3C2)NC(c2nccs2)=N[C@H]1c1cccc(F)c1C [Reference 2, reference compound] | 65.6 | 332 | 254.9 | 129.7 | 50.8 | 2.45 | 12 | 15.9 | 12.2 | 49.1 | 733 | 2894 | 1676 | 345.2 | 181.5 | 52.7 | –
